No end group written: not given here.
Legend:
[1] = test system: hMrgprX1;Mrgpr-cluster∆−/− transgenic mouse; details: in vivo
human MrgprX1 (hMrgprX1) = human MrgprX1 (hMrgprX1) (Homo sapiens, UniProt Q96LB2); experiment: cell-based; assay type: cell-based
Chain of human MrgprX1 (hMrgprX1) (Q96LB2 whole entry, looked up): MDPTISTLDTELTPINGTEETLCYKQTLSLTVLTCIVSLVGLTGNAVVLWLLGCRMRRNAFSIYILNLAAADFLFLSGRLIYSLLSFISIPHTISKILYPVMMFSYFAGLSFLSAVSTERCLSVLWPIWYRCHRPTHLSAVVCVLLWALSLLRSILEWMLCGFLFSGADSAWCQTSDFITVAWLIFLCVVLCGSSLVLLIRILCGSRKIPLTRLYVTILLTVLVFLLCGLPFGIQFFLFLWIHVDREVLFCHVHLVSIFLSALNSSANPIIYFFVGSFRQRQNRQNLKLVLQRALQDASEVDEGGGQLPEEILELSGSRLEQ

Substance | Itch-related scratching after intradermal cheek injection of peptide [1] | Activation of hMrgprX1 (human MrgprX1 (hMrgprX1)) | EC50 (human MrgprX1 (hMrgprX1)) | Potency in activating hMrgprX1 relative to CNF-Vc1 (human MrgprX1 (hMrgprX1))
HSGILLAWSGPRNRFVRI-NH2 [CNF-Tx2] | induces significant scratching | activates | 540 nM | at least threefold more potent
WSGPRNRFVRF-NH2 [CNF-Vc1(7–18)] | – | can activate | – | –

— PMC6299835 (Toxicon : official journal of the International Society on …, 2018)
